Read-outs that look alike come from different tables or passages of the source.
Test system: cultured human mast cells (CHMC)
Experiment: CHMC low cell density IgE activation: tryptase assay
Format: cell-based
Conditions: low cell density CHMC, IgE activation
Procedure, shortened: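 Tryptase release, fluorogenic substrate, 30 min RT. Prior anti-IgE stimulation of CHMC, 30 min, 37 °C, after 1 hr preincubation at 1000–1500 cells/well in MT; unstimulated wells received MT.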

[1] = Homo sapiens, Mast cell, tryptase, 3 pt, read-out: LD Tryptase, CHMC, IgE, 3 pt
[2] = Homo sapiens, Mast cell, tryptase, 8 pt, read-out: LD Tryptase, CHMC, IgE, 8 pt
[3] = Homo sapiens, Mast cell, tryptase release, 8 pt, read-out: LD Tryptase, CHMC, IgE, 8 pt
[4] = tryptase release, 8 pt, read-out: LD Tryptase, CHMC, IgE, 8 pt

Cc1nn(C)c2cc(Nc3ncc(F)c(Nc4ccc(Cl)c(Cl)c4)n3)ccc12 [Compound 753, N4-(3,4-Dichlorophenyl)-N2-(1,3-dimethylindazol-6-yl)-5-fluoro-2,4-pyrimidinediamine]
IC50 [1]: < 10 µM | IC50 [2]: < 10 µM

Cc1nn(C)c2cc(Nc3ncc(F)c(Nc4ccc5c(c4)NC(=O)C(C)(C)O5)n3)ccc12 [Compound 754, N2-(1,3-Dimethylindazol-6-yl)-N4-(2,2-dimethyl-3-oxo-4H-benz[1,4]oxazin-6-yl)-5-fluoro-2,4-pyrimidinediamine]
IC50 [1]: < 10 µM | IC50 [2]: < 10 µM

COc1cc(Nc2nc(Nc3ccc4c(C)nn(C)c4c3)ncc2F)ccc1F [Compound 755, N2-(1,3-Dimethylindazol-6-yl)-5-fluoro-N4-(4-fluoro-3-methoxyphenyl)-2,4-pyrimidinediamine]
IC50 [1]: < 10 µM | IC50 [2]: < 10 µM

COc1ccc(Nc2nc(Nc3cc4cnn(C)c4cc3C)ncc2F)cc1Cl [Compound 756, N4-(3-Chloro-4-methoxyphenyl)-N2-(1,6-dimethylindazol-5-yl)-5-fluoro-2,4-pyrimidinediamine]
IC50 [1]: < 10 µM

Cc1cc2c(cnn2C)cc1Nc1ncc(F)c(Nc2ccc(Cl)c(Cl)c2)n1 [Compound 757, N4-(3,4-Dichlorophenyl)-N2-(1,6-dimethylindazol-5-yl)-5-fluoro-2,4-pyrimidinediamine]
IC50 [1]: < 10 µM

Cc1cc2c(cnn2C)cc1Nc1ncc(F)c(Nc2ccc3c(c2)NC(=O)C(C)(C)O3)n1 [Compound 758, N2-(1,6-Dimethylindazol-5-yl)-N4-(2,2-dimethyl-3-oxo-4H-benz[1,4]oxazin-6-yl)-5-fluoro-2,4-pyrimidinediamine]
IC50 [1]: < 10 µM | IC50 [2]: < 10 µM

COc1cc(Nc2nc(Nc3cc4cnn(C)c4cc3C)ncc2F)ccc1F [Compound 759, N2-(1,6-Dimethylindazol-5-yl)-5-fluoro-N4-(4-fluoro-3-methoxyphenyl)-2,4-pyrimidinediamine]
IC50 [1]: < 10 µM

CCn1cc2ccc(Nc3ncc(F)c(Nc4ccc(Cl)c(Cl)c4)n3)cc2n1 [Compound 760, N4-(3,4-Dichlorophenyl)-N2-(2-ethylindazol-6-yl)-5-fluoro-2,4-pyrimidinediamine]
IC50 [1]: < 10 µM | IC50 [2]: < 10 µM

CCCn1cc2cc(Nc3ncc(F)c(Nc4ccc(Cl)c(Cl)c4)n3)ccc2n1 [Compound 762, N4-(3,4-Dichlorophenyl)-5-fluoro-N2-(2-n-propylindazol-5-yl)-2,4-pyrimidinediamine]
IC50 [1]: < 10 µM | IC50 [2]: < 10 µM

CCCn1cc2cc(Nc3ncc(F)c(Nc4ccc5c(c4)NC(=O)C(C)(C)O5)n3)ccc2n1 [Compound 763, N4-(2,2-Dimethyl-3-oxo-4H-benz[1,4]oxazin-6-yl)-5-fluoro-N2-(2-n-propylindazol-5-yl)-2,4-pyrimidinediamine]
IC50 [1]: < 10 µM | IC50 [2]: < 10 µM

CCCn1cc2ccc(Nc3ncc(F)c(Nc4ccc5c(c4)NC(=O)C(C)(C)O5)n3)cc2n1 [Compound 764, N4-(2,2-Dimethyl-3-oxo-4H-benz[1,4]oxazin-6-yl)-5-fluoro-N2-(2-n-propylindazol-6-yl)-2,4-pyrimidinediamine]
IC50 [1]: < 10 µM | IC50 [2]: < 10 µM

CCCn1cc2ccc(Nc3ncc(F)c(Nc4ccc(Cl)c(Cl)c4)n3)cc2n1 [Compound 765, N4-(3,4-Dichlorophenyl)-5-fluoro-N2-(2-n-propylindazol-6-yl)-2,4-pyrimidinediamine]
IC50 [1]: < 10 µM | IC50 [2]: < 10 µM

COc1ccc(Nc2nc(Nc3ccc4c(cnn4C(C)C)c3)ncc2F)cc1Cl [Compound 779, N4-(3-Chloro-4-methoxyphenyl)-5-fluoro-N2-[1-(1-methylethyl)indazol-5-yl]-2,4-pyrimidinediamine]
IC50 [3]: < 10 µM

CC(C)n1ncc2cc(Nc3ncc(F)c(Nc4ccc(Cl)c(Cl)c4)n3)ccc21 [Compound 780, N4-(3,4-Dichlorophenyl)-5-fluoro-N2-[1-(1-methylethyl)indazol-5-yl]-2,4-pyrimidinediamine]
IC50 [3]: < 10 µM

CC(C)n1ncc2cc(Nc3ncc(F)c(Nc4ccc5c(c4)NC(=O)C(C)(C)O5)n3)ccc21 [Compound 781, N4-(2,2-Dimethyl-3-oxo-4H-benz[1,4]oxazin-6-yl)-5-fluoro-N2-[1-(1-methylethyl)indazol-5-yl]-2,4-pyrimidinediamine]
IC50 [3]: < 10 µM

COc1cc(Nc2nc(Nc3ccc4c(cnn4C(C)C)c3)ncc2F)ccc1F [Compound 782, 5-Fluoro-N4-(4-fluoro-3-methoxyphenyl)-N2-[1-(1-methylethyl)indazol-5-yl]-2,4-pyrimidinediamine]
IC50 [3]: < 10 µM

COc1ccc(Nc2nc(Nc3ccc4cnn(C(C)C)c4c3)ncc2F)cc1Cl [Compound 783, N4-(3-Chloro-4-methoxyphenyl)-5-fluoro-N2-[1-(1-methylethyl)indazol-6-yl]-2,4-pyrimidinediamine]
IC50 [3]: < 10 µM

CC(C)n1ncc2ccc(Nc3ncc(F)c(Nc4ccc(Cl)c(Cl)c4)n3)cc21 [Compound 784, N4-(3,4-Dichlorophenyl)-5-fluoro-N2-[1-(1-methylethyl)indazol-6-yl]-2,4-pyrimidinediamine]
IC50 [3]: < 10 µM

CC(C)n1ncc2ccc(Nc3ncc(F)c(Nc4ccc5c(c4)NC(=O)C(C)(C)O5)n3)cc21 [Compound 785, N4-(2,2-Dimethyl-3-oxo-4H-benz[1,4]oxazin-6-yl)-5-fluoro-N2-[1-(1-methylethyl)indazol-6-yl]-2,4-pyrimidinediamine]
IC50 [3]: < 10 µM

CC(C)n1ncc2ccc(Nc3ncc(F)c(Nc4ccc5c(c4)NC(=O)[C@H](C)O5)n3)cc21 [Compound 786, (S)-N4-[2-Methyl-3-oxo-2H,4H-benz[1,4]oxazin-6-yl]-5-fluoro-N2-[1-(1-methylethyl)indazol-6-yl]-2,4-pyrimidinediamine]
IC50 [3]: < 10 µM

Cn1nc(N)c2cc(Nc3ncc(F)c(Nc4ccc(Cl)c(Cl)c4)n3)ccc21 [Compound 805, N2-(3-Amino-1-methylindazol-5-yl)-N4-(3,4-dichlorophenyl)-5-fluoro-2,4-pyrimidinediamine]
IC50 [3]: < 10 µM

Cn1nc(N)c2cc(Nc3ncc(F)c(Nc4ccc5c(c4)NC(=O)C(C)(C)O5)n3)ccc21 [Compound 806, N2-(3-Amino-1-methylindazol-5-yl)-N4-(2,2-dimethyl-3-oxo-4H-benz[1,4]oxazin-6-yl)-5-fluoro-2,4-pyrimidinediamine]
IC50 [3]: < 10 µM

Cc1nn(C)c2cc(Nc3ncc(F)c(Nc4ccc5c(n4)NC(=O)C(C)(C)O5)n3)ccc12 [Compound 812, N2-(1,3-Dimethylindazol-6-yl)-N4-(2,2-dimethyl-3-oxo-4H-5-pyrid[1,4]oxazin-6-yl)-5-fluoro-2,4-pyrimidinediamine]
IC50 [4]: < 10 µM

Cc1n[nH]c2cc(Nc3ncc(F)c(Nc4ccc5c(n4)NC(=O)C(C)(C)O5)n3)ccc12 [Compound 813, N4-(2,2-Dimethyl-3-oxo-4H-5-pyrid[1,4]oxazin-6-yl)-5-fluoro-N2-(3-methyl-1H-indazol-6-yl)-2,4-pyrimidinediamine]
IC50 [4]: < 10 µM

COCCCn1ncc2cc(Nc3ncc(F)c(Nc4ccc5c(n4)NC(=O)C(C)(C)O5)n3)ccc21 [Compound 814, N4-(2,2-Dimethyl-3-oxo-4H-5-pyrid[1,4]oxazin-6-yl)-5-fluoro-N2-[1-(3-methoxypropyl)indazol-5-yl]-2,4-pyrimidinediamine]
IC50 [4]: < 10 µM

COc1ccc(Nc2nc(Nc3ccc4c(cnn4CCCN4C(=O)c5ccccc5C4=O)c3)ncc2F)cc1Cl [Compound 815, N4-(3-Chloro-4-methoxyphenyl)-5-fluoro-N2-[1-[3-(N-phthalimidopropyl)]indazol-5-yl]-2,4-pyrimidinediamine]
IC50 [4]: < 10 µM

O=C1c2ccccc2C(=O)N1CCCn1ncc2cc(Nc3ncc(F)c(Nc4ccc(Cl)c(Cl)c4)n3)ccc21 [Compound 816, N4-(3,4-Dichlorophenyl)-5-fluoro-N2-[1-[3-(N-phthalimidopropyl)]indazol-5-yl]-2,4-pyrimidinediamine]
IC50 [4]: > 10 µM

CC1(C)Oc2ccc(Nc3nc(Nc4ccc5c(cnn5CCCN5C(=O)c6ccccc6C5=O)c4)ncc3F)cc2NC1=O [Compound 817, N4-(2,2-Dimethyl-3-oxo-4H-benz[1,4]oxazin-6-yl)-5-fluoro-N2-[1-[3-(N-phthalimidopropyl)]indazol-5-yl]-2,4-pyrimidinediamine]
IC50 [4]: < 10 µM

C[C@@H]1Oc2ccc(Nc3nc(Nc4ccc5c(cnn5CCCN5C(=O)c6ccccc6C5=O)c4)ncc3F)cc2NC1=O [Compound 818, (S)-5-Fluoro-N4-(2-methyl-3-oxo-2H,4H-benz[1,4]oxazin-6-yl)-N2-[1-[3-(N-phthalimidopropyl)]indazol-5-yl]-2,4-pyrimidinediamine]
IC50 [4]: < 10 µM

CC(=O)NCCCn1ncc2cc(Nc3ncc(F)c(Nc4ccc(Cl)c(Cl)c4)n3)ccc21 [Compound 820, N2-[1-[3-(N-Acetylamino)propyl]indazol-5-yl]-N4-(3,4-dichlorophenyl)-5-fluoro-2,4-pyrimidinediamine]
IC50 [3]: < 10 µM

CC(=O)NCCCn1ncc2cc(Nc3ncc(F)c(Nc4ccc5c(c4)NC(=O)C(C)(C)O5)n3)ccc21 [Compound 821, N2-[1-[3-(N-Acetylamino)propyl]indazol-5-yl]-N4-(2,2-dimethyl-3-oxo-4H-benz[1,4]oxazin-6-yl)-5-fluoro-2,4-pyrimidinediamine]
IC50 [3]: < 10 µM

CC(=O)NCCCn1ncc2cc(Nc3ncc(F)c(Nc4ccc5c(n4)NC(=O)C(C)(C)O5)n3)ccc21 [Compound 822, N2-[1-[3-(N-Acetylamino)propyl]indazol-5-yl]-N4-(2,2-dimethyl-3-oxo-4H-5-pyrid[1,4]oxazin-6-yl)-5-fluoro-2,4-pyrimidinediamine]
IC50 [3]: < 10 µM

COc1ccc(Nc2nc(Nc3ccc4c(cnn4CCCN)c3)ncc2F)cc1Cl [Compound 823, N2-[1-(3-Aminopropyl)indazol-5-yl]-N4-(3-chloro-4-methoxyphenyl)-5-fluoro-2,4-pyrimidinediamine]
IC50 [3]: < 10 µM

Reference: patent US20220073536A1 (Rigel Pharmaceuticals, Inc., priority 2003, published 2022)
